{
  "source": "patent US20250082630A1",
  "about": "“METHODS OF TREATING BRAIN TUMOURS AND NEUROBLASTOMAS” (AstraZeneca AB, priority 2021, published 2025)",
  "key": {"[1]": {"system": "SJ-G2 IDH1wt ATRXmt", "assay": "Monotherapy treatment, SJ-G2 IDH1wt ATRXmt", "assay_type": "cell-based", "method": "DMSO served as a vehicle control.\nThe plates were washed again and PBS was added."}, "[2]": {"assay": "Determination of Kpuu in rat", "assay_type": "in vivo, Han Wistar rats", "conditions": "Han Wistar, rat, brain and plasma (unbound brain-to-plasma ratio), 2 µmols/kg/h, intravenous infusion", "method": "The fraction unbound was determined using the RED Device.\nCompounds were prepared as 10 mM solutions in DMSO. […] If less than 9 test compounds were included then the addition volume of blank DMSO was added to make up volume to 40 uL.\nFrozen plasma was thawed in a water bath at 37° C. Plasma was then centrifuged for 2 minutes at 4,000 rpm to remove clots and collect supernatant into a fresh tube. The pH of the plasma was checked and only used if within the range of pH 7 to pH 8. 3 μL of the working solution of each cassette was added to 597 μL of blank plasma and vortexed for 5 minutes at 1000 rpm. The final percent volume of organic solvent is 0.5% and the final concentration for test compound was 5 μM. Immediately transfer 50 μL of the spiked plasma suspension to a 96-well plate to act as T=0 control sample. The samples are treated the same as the samples after incubation. The remaining plasma is kept at 37° C. prior to starting the dialysis.\nPlace inserts open end up into the wells of the base plate. Add 300 μL of spiked plasma sample into the sample chamber, indicated by the red ring. Add 500 μL of phosphate buffer (pH 7.4) to the buffer chamber. Cover the unit with gas permeable lid and incubate for 18 hours at 37° C. at 300 rpm with 5% CO2 on an orbital shaker in the CO2 incubator. At the end of incubation, remove lid and pipette 50 μL of post-dialysis samples from both buffer and plasma chambers into separated 96-well plate for analysis, respectively.\nSamples were matrix matched by adding 50 μL of blank rat plasma to the buffer samples and an equal volume of PBS to the collected plasma samples and vortexed to mix. 400 μL of acetonitrile containing an appropriate internal standard (IS) was added to precipitate protein and release compound and mixed by vortexing the plate for 10 minutes followed by centrifugation for 30 minutes at 4,000 rpm. 250 μL of the supernatant was transferred to new 96-well plates and centrifuged again (4,000 rpm, 30 minutes). 100 μL of the supernatant was then transferred to new 96-well plates and mixed with 100 μL of distilled water to each sample by vortex for 5 minutes at 1,000 rpm. Samples were analysed by LC-MS/MS and drug concentrations were determined vs a calibration curve produced from spiked blank plasma with a typical range of 1-7500 nM.\nThe % unbound was determined as % Unbound=(Conc. buffer chamber/Conc. plasma chamber)×100%. Fraction unbound=% unbound/100.\nThe principle for the method for the determination of volume unbound in brain slices has previously been published (Development of a High-Throughput Brain Slice Method for Studying Drug Distribution in the Central Nervous System; Fridén et al; Drug Metabolism and Disposition, 2009, 37 (6) 1226-1233). In brief:\nCompound stock solutions were prepared in DMSO at the concentration of 10 mM. […] If less than 9 test compounds were included, then blank DMSO was added to make up volume to 40 uL. On the day of the experiment 4 ul was diluted in 40 mL ECF buffer to give a 100 nM solution of each test compounds which was then pre-warmed to 37° C. before the start of the incubation.\nTo prepare brain slices, rats weighing approximately 300 g were terminally anesthetised with isoflurane by inhalation, the brain carefully removed and immersed in ice-cold oxygenated ECF buffer. The rat brain was transferred to a dish containing ice-cold, 02 supplied ECF buffer and trimmed with razor before gluing to the tray of a microslicer with the brain placed with the back section surface down centrally on the tray. Ice cold ECF buffer was added to harden the glue and wet the brain. The tray was placed in the microslicer and using a suitable cutting speed, 100-400 μm were cut slices until the striatum area appeared. Four to six for each brain, 300 μm thick, coronal slices of striatum areas were cut and placed in ice cold 02 supplied buffer until incubation. Six slices were transferred to the incubation tray containing 40 mL pre warmed (37° C.) cassette mixture. […]"}, "[3]": {"system": "DLD1 cells", "assay": "PARP proliferation assay (7 day compound dosing), WT DLD1", "assay_type": "cell-based", "conditions": "Homo sapiens, DLD-1, 168 h, read-out: WT DLD-1 prolif. 7 d IC50", "method": "DLD1 and BRCA2 (−/−) DLD1 cells were harvested to a density of 5000 cells/ml and 2.5E4 cells/ml respectively in complete media, 40 μL/well seeded into 384-well plates (Greiner, Kremsmunster, Austria; 781090) using a Multidrop Combi then incubated at 37° C., 5% CO2 overnight. Next day (Day 1) using a Multidrop Combi add sytox green (5ul, 2 uM) and saponin (10 ul, 0.25% stock) to a day 0 plate, seal the plate using a black adhesive lid and incubate for >3 h at it. Cells were imaged using Cell Insight (Thermo Fisher) fitted with a 4x objective. Test compounds are added using an Echo 555 and placed in incubator maintained at 37° C., 5% CO2 and incubated for 7 days. On Day 8 add sytox green (5ul, 2 uM) and then saponin (10 ul, 0.25% stock) to plates, seal the plate using a black adhesive lid and incubate for >3 h at it. Read all cells on the Cell Insight with 4× Objective. The rate of proliferation is determined in Genedata by assessing the total cell number output from the Cell Insight for Day 0 and Day 8 plates."}},
  "data": [
    {"compound": "CNC(=O)c1ccc(N2CCN(Cc3ccc4nc(C)c(=O)[nH]c4c3F)CC2)c(F)n1", "note": "[Example 20, 6-fluoro-5-[4-[(5-fluoro-2-methyl-3-oxo-4H-quinoxalin-6-yl)methyl]piperazin-1-yl]-N-methyl-pyridine-2-carboxamide]", "values": [
      {"measurement": "IC50", "setting": "[1]; SJ-G2, read-out: Compound 20 IC50", "result": 2340, "unit": "nM"},
      {"measurement": "higher sensitivity compared to the ATRXwt U87 model", "setting": "[1]; SJ-G2 ATRXmt model, monotherapy", "result": "about 40 fold"},
      {"measurement": "Kp uu at 4 h", "setting": "[2]", "result": 0.27},
      {"measurement": "IC50", "setting": "[3]", "result": "> 30000", "unit": "nM"}
    ]}
  ]
}
